# In patent US7067619B2, “Integrin-binding peptides” (La Jolla Cancer Research Foundation, priority 1993, dated 2006):
# Like-named read-outs stand apart in the source and are kept apart here. Bridge positions count the residues as written; N and C are the ends. Ends that are not written are not given here.
# Assays:
# α5β1 integrin [1] = test: Cell attachment to immobilized […] peptide (B2/α27 vs B2/Cl cells); format: cell-based, human; details: FIG. 8
# Excerpt: (§1) Cell lines expressing fibronectin-binding integrins were used to determine peptide activities against these integrins in the cell attachment assay described by Ruoslahti et al., Meth. Enzymol., 144:803–831 (1982), which is incorporated herein by reference. Human plasma fibronectin was iodinated as described by Morla and Ruoslahti, J. Cell Biol., 118:421–429 (1992), which is incorporated herein by reference. Vitronectin was obtained from Telios Pharmaceuticals (San Diego, Calif.). […] Peptide was coated on plastic by incubating at 37° C. for 2 hours in phosphate buffered saline containing 0.25% glutaraldehyde to crosslink the peptide. Free binding sites on the plastic were blocked using BSA. Approximately 1×10^5 cells per well were allowed to attach for 1 hour in the presence or absence of competing peptides. Bound cells were quantitated by staining with 0.1% amido black.
# In addition to the inhibition of cell attachment to natural ligands, attachment and inhibition assays were performed using the […] [SEQ ID NO:6] peptide as substrate. The microliter well were coated with […] [SEQ ID NO:6] using glutaraldehyde as described above. Briefly, peptide was coated on plastic by incubating at 37° C. for 2 hours in phosphate buffered saline containing 0.25% glutaraldehyde to crosslink the peptide and free binding sites on the plastic were blocked using BSA. The wells were then saturated with BSA followed by the addition of 50,000 B2/α27 or B2/Cl cells in the presence or absence of the indicated inhibitor. […] Bound cells were quantitated by staining with 0.1% amido black.
# α5β1 integrin [2] = target: T1, α5β1 integrin (Homo sapiens, UniProt P05556+P08648); test: Panning and binding of peptide-displaying phage on α5β1 integrin; details: phage-displayed sequence
# T1 construct: The αvβ3, αvβ5 and α5β1 integrins were isolated from human placental extracts; from tissue; host or cells: human placenta
# Excerpt: (§2) In addition, most of the phage-binding activity in the αvβ3 preparation was captured into microliter wells coated with antibodies against the αv or β3 subunits as described previously (Koivunen et al., J. Biol. Chem., 268:20205–10 (1993). The αIIbβ3 integrin was isolated from outdated platelets (Pytela et al., Science, 231:1559–1562 (1986)).
# Peptide libraries were constructed in fuse 5 vector (Scott and Smith, Science 249:386–390 (1990)) as described previously (Koivunen et al., J. Cell Biol., 124:373–380 (1994). The CX5C, CX6C, CX7C and CX9 [SEQ ID NOs:39–42, respectively] libraries were prepared using synthetic oligonucleotides containing core sequences TGT(NNK)5TGT, TGT(NNK)6TGT, TGT(NNK)7TGT and TGT(NNK)9 [SEQ ID NOS:43–46, respectively] (N=equal molar mixture of A, C, G, T; K=G or T), respectively. The oligonucleotides were made double-stranded by PCR amplification with 5 cycles, purified and ligated to the N-terminus of pIII gene of fuse 5 vector. The CX5C, CX6C, CX7C and CX9 [SEQ ID NOS:39–42, respectively] vectors were transfected into MC1061 cells using 16, 60, 263 and 250 electroporations, respectively. Bacteria were cultured for 24 hours in the presence of 20 μg/ml of tetracycline, and phage were collected from the supernatant by precipitation twice with polyethylene glycol. The phage pellets were dissolved at approximately 10^13 transducing units (TU)/ml in TBS buffer containing 0.02% NaN3 and stored at 4° C. The yields of the CX5C, CX6C, CX7C and CX9 [SEQ ID NOS:39–42, respectively] primary libraries were 3.5×10^8, 1.1×10^9, 4.5×10^5 and 3.5×10^8 clones, respectively. […]
# Binding of individual cloned phage to integrins was studied in microliter wells as described in Koivunen et al., J. Cell. […] Phage that were bound were determined by their ability to infect F-pilus positive K91kan bacteria. Bacteria were grown overnight in microliter wells in the presence of tetracycline and the absorbance indicative of bacterial growth was read at 600 nm with an ELISA plate reader.
# α5β1 integrin [3] = test: Inhibition of α5β1-mediated cell attachment to fibronectin; format: cell-based, human
# Excerpt: Cell lines expressing different integrins were used to examine peptide inhibition of integrin function. A human melanoma cell line, C8161, a fibroblast cell line, WI-38, and an osteosarcoma cell line, MG-63 (described by Seftor et al., Canc. Res., 53:3411–3415 (1993); Vogel et al., J. Biol. Chem., 265:5934–5937 (1990); and Pytela et al. (1985), supra, respectively, each of which is incorporated herein by reference) attach to fibronectin through α5β1 integrin, as does B2/α27, a CHO cell line transfected with human α5. B2/C1, the control parental CHO line (Bauer et al., J. Cell. Biol. 116:477–487 (1992), which is incorporated herein by reference), attaches via […]. CHO cells C11 and NIH 3T3 cells express the endogenous Chinese hamster and mouse α5β1 integrins, respectively. The human melanoma cells, A375-M, attach to fibronectin through both α5β1 and α4β1 integrins (Mould et al., J. Biol. Chem. 265:4020–4024 (1990), which is incorporated herein by reference). CHO cell line B2/v7 express the αvβ1 integrin (Zhang et al., J. Cell. Biol. 122:235–242 (1993), which is incorporated herein by reference). The vitronectin-binding integrins […] and αvβ3 were assayed using the cell line HT-29 and IMR-90, respectively (Koivunen et al., J. Biol. Chem. 268: 20205–20210 (1993)).
# as §1
# Inhibition of cell attachment mediated by either fibronectin- or vitronectin-binding integrins was performed to determine peptide specificity in a biologically relevant system. The assays and cell lines were performed as described above. FIGS. 5 and 6 show the results of cell attachment mediated by the fibronectin binding integrins α5β1 and αvβ1.
# α5β1 integrin [4] = target: T1, α5β1 integrin; test: Inhibition of peptide-displaying phage binding to α5β1 integrin by synthetic peptides
# Protocol: Phage clone containing the RGDGW [SEQ ID NO:9] sequence was incubated for 1 hour in integrin-coated microliter wells in the presence of the competing peptides. After extensive washing, the phage remained bound were determined as described in Example XII.
# as §2
# (§3) Binding of individual cloned phage to integrins was studied in microliter wells as described in Koivunen et al., J. Cell. Biol., 124:373–380 (1994). Phage binding to α5β1 and αvβ3 were assayed in TBS buffer containing 1% BSA and 1 mM MnCl2 and binding to αvβ5 in the presence of 1 mM CaCl2. Phage that were bound were determined by their ability to infect F-pilus positive K91kan bacteria. Bacteria were grown overnight in microliter wells in the presence of tetracycline and the absorbance indicative of bacterial growth was read at 600 nm with an ELISA plate reader.
# Relative affinities of the […] [SEQ ID NO:12] and CRGDC [SEQ ID NO:37] peptides were determined by inhibition of binding of peptide-displaying phage to α5β1 integrin. Peptide-displaying phage were constructed as described by Scott and Smith, Science 249:386–390 (1990) and Example IV. Microwell plates were coated with various integrins as described by Koivunen et al., J. Biol. Chem., 268:20205–10 (1993) and Example II.
# The binding of […] [SEQ ID NO:12]-containing peptide ligands to α5β1 integrin was performed as follows. RRETAWA [SEQ ID NO:8]-displaying phage were incubated for 1 hour in the presence of various concentrations of the cyclic peptides containing […] [SEQ ID NO:12] and containing CRGDC [SEQ ID NO:37] in microliter wells coated with the α5β1 integrin. Binding was quantitated by adding K91kan bacteria directly to the wells and growing the bacteria overnight at room temperature (Smith and Scott, Meth. Enzymol., 217:228–257 (1993), which is incorporated herein by reference).
# Additional peptide motifs were tested as follows. ELRGDGW-displaying [SEQ ID NO:4] phage were added together with various concentrations of the cyclic peptides containing […] [SEQ ID NO:12] and containing CRGDC [SEQ ID NO:37] into microliter wells coated with the α5β1 integrin, incubated for 1 hour at room temperature and binding to wells was quantitated.
# αvβ3 integrin = αvβ3 integrin (Homo sapiens, UniProt P05106+P06756); test: Inhibition of peptide-displaying phage binding to αvβ3 integrin by synthetic peptides; design: The αvβ3, αvβ5 and α5β1 integrins were isolated from human placental extracts; from tissue; host or cells: human placenta; details: CRGDCL-displaying phage, αvβ3-coated wells; FIG. 3 (result sentence prints α5β1)
# Excerpt: as §2, §3
# The ability of […] [SEQ ID NO:12] and CRGDC [SEQ ID NO:37] containing peptides to inhibit binding of CRGDCL-displaying [SEQ ID NO:7] phage to the microwells coated with αvβ3 integrin also was examined. CRGDCL-displaying [SEQ ID NO:7] phage were added to a well and either cyclic […] [SEQ ID NO:6] or cyclic […] [SEQ ID NO:5] was added to compete for binding. Binding was quantitated as described above.
# α4β1 = α4β1 (Homo sapiens, UniProt P05556+P13612); details: Nowlin et al., J. Biol. Chem. 268:20352–59 (1993); cited from earlier work
# α5β1 = α5β1 (Homo sapiens, UniProt P05556+P08648); details: Nowlin et al., J. Biol. Chem. 268:20352–59 (1993); cited from earlier work
# Sequence of α5β1 (P08648 42-894 limits assumed): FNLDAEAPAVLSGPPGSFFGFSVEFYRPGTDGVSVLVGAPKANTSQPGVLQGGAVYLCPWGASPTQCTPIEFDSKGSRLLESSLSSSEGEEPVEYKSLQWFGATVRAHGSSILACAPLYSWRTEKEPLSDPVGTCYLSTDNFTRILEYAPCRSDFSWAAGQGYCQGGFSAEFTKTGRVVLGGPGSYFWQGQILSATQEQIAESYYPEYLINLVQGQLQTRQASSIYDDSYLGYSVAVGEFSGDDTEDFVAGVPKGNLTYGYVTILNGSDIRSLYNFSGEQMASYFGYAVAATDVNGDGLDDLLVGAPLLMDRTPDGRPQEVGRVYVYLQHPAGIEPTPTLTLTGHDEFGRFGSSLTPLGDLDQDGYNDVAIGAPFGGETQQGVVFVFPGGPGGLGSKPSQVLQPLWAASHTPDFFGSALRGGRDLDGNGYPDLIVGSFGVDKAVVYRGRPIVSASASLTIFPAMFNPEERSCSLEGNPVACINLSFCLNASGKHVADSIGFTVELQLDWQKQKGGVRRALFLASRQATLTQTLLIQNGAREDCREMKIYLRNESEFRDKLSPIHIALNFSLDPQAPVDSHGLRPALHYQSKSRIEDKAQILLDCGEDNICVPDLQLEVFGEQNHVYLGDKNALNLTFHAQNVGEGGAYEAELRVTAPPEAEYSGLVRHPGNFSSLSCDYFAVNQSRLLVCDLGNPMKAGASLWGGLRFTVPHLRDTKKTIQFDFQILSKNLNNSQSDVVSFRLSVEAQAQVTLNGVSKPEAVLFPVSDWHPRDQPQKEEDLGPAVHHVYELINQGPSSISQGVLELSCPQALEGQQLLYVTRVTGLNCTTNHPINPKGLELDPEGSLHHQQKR
# Sequence of α5β1 (P08648 895-1049 partner limits assumed): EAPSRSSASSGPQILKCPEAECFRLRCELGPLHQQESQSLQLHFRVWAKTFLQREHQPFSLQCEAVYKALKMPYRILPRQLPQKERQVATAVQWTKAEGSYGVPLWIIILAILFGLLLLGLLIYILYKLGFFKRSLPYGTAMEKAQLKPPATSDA
# Sequence of α5β1 (P05556 21-798): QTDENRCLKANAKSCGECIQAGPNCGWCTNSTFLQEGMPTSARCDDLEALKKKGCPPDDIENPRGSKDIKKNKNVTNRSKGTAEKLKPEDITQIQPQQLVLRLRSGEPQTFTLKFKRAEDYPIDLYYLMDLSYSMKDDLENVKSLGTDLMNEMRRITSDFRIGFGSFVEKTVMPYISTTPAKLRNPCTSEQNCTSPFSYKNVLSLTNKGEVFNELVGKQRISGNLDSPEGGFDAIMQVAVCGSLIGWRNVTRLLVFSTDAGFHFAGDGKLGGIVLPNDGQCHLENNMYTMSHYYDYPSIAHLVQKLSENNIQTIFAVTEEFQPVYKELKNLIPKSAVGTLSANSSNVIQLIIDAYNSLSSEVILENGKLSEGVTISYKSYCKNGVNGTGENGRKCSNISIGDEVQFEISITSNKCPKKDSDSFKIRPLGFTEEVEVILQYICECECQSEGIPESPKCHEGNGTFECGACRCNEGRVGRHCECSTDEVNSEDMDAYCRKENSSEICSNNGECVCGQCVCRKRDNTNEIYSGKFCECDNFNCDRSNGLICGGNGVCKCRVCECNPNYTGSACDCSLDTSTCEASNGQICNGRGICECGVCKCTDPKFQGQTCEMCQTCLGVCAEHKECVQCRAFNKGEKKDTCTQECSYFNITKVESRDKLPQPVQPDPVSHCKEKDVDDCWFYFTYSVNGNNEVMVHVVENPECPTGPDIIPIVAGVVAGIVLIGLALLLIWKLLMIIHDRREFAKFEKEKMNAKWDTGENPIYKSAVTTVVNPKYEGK
# T1 sequence (P08648 42-894 limits assumed): as the sequence (P08648 42-894 limits assumed) above
# T1 sequence (P08648 895-1049 partner limits assumed): as the sequence (P08648 895-1049 partner limits assumed) above
# T1 sequence (P05556 21-798): as the sequence (P05556 21-798) above
# Sequence of αvβ3 integrin (P06756 31-889 limits assumed): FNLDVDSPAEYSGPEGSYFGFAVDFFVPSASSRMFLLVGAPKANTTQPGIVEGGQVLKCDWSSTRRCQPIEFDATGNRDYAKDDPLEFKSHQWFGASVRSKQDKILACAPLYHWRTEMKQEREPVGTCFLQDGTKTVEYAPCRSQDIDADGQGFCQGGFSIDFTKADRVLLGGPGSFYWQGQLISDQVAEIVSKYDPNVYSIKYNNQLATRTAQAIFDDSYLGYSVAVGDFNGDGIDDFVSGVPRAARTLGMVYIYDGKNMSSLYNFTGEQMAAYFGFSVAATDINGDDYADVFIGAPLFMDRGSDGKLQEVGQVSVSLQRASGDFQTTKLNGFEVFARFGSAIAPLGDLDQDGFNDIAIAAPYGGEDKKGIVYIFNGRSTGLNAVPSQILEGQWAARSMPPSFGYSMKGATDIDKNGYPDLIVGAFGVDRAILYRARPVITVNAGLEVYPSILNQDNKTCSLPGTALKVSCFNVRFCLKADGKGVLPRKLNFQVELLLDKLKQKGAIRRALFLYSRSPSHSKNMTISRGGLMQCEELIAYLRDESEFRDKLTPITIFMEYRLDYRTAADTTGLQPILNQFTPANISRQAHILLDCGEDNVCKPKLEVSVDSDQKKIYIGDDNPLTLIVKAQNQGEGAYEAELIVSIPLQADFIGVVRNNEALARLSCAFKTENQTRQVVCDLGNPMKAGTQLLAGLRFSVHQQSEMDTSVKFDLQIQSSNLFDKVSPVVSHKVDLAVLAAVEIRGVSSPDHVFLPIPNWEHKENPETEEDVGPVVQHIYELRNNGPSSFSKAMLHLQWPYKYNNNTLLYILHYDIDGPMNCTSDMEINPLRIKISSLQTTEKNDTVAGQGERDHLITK
# Sequence of αvβ3 integrin (P06756 891-1048 partner limits assumed): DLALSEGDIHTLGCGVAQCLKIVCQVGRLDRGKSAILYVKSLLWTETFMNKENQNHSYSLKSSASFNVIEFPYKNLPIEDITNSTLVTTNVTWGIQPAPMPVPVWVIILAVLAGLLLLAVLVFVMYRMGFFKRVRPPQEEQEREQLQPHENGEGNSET
# Sequence of αvβ3 integrin (P05106 27-788): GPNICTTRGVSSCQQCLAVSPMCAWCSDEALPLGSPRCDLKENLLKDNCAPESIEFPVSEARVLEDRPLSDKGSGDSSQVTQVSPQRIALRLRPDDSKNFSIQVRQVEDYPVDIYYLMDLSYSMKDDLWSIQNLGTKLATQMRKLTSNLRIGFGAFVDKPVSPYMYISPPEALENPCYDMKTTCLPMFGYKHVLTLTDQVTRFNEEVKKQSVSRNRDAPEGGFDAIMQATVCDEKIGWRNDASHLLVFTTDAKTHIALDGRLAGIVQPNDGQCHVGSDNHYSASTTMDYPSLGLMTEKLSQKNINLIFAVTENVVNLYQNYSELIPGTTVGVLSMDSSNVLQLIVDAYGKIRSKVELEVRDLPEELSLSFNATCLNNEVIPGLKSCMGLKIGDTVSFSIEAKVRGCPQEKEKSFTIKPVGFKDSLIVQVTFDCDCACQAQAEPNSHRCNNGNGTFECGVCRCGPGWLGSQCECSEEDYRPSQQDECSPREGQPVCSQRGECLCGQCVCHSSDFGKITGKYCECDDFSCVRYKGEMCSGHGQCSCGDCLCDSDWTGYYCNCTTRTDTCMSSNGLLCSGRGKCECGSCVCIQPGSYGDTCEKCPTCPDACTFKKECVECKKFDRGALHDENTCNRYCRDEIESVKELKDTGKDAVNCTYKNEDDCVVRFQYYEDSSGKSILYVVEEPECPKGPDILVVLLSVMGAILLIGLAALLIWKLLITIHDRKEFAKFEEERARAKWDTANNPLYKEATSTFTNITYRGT
# Sequence of α4β1 (P13612 34-1032): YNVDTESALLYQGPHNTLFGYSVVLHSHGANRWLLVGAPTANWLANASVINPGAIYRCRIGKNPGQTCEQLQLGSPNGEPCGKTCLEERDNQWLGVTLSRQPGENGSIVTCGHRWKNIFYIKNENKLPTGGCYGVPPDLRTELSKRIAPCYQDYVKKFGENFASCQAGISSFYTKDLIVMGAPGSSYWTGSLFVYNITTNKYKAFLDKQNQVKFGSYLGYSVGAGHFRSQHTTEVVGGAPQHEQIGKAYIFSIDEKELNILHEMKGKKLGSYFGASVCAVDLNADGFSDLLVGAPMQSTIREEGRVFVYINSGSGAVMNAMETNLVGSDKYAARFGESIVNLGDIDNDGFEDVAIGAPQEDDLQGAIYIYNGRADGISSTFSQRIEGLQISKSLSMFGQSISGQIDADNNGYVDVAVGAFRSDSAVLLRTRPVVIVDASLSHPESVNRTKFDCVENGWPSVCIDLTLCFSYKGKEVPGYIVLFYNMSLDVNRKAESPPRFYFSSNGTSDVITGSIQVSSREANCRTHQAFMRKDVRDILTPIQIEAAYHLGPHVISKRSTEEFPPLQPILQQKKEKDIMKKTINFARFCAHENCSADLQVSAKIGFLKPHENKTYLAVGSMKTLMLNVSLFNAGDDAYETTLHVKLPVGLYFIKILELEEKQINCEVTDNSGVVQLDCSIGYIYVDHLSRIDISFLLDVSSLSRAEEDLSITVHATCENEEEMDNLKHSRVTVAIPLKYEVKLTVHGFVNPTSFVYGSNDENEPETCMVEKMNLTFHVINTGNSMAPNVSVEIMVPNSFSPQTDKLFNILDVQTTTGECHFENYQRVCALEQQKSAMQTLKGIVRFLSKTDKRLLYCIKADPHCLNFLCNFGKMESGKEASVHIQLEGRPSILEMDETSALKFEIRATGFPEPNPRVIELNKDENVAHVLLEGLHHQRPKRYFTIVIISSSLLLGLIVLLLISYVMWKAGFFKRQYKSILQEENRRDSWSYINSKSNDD
# Sequence of α4β1 (P05556 21-798): as the sequence (P05556 21-798) above
molecule,measurement,setting,value
"O=C(O)CN(CCN(CC(=O)O)CC(=O)O)CC(=O)O [EDTA, reference compound]",inhibition of B2/α27 attachment to immobilized RRETAWA-containing peptide,α5β1 integrin [1]; inhibitor at 10 mM,inhibited
CRGDGWC [A*CRGDGWC*G],binding of peptide-displaying phage to the α5β1 integrin,α5β1 integrin [2],among the best binders
same,IC50,"α5β1 integrin [3]; B2/a27 cells (human α5, CHO β1), FIG. 11, read-out: IC50 of inhibition of attachment of B2/a27 cells to fibronectin",6 µM
same,potency relative to *CRGDC* in B2/a27 attachment to fibronectin,"α5β1 integrin [3]; B2/a27 cells, more potent than *CRGDC*",7 fold
same,potency relative to *CRRETAWAC* in B2/a27 attachment to fibronectin,"α5β1 integrin [3]; B2/a27 cells, more potent than *CRRETAWAC*",7 fold
same,potency relative to *CRRETAWAC* in MG 63 cells,"α5β1 integrin [3]; MG 63 cells, more potent than *CRRETAWAC*",4 fold
same,IC50,"α5β1 integrin [3]; MG 63 cells, read-out: IC50 of inhibition of attachment of MG 63 cells to fibronectin",10 µM
same,improvement in activity compared to linear GRGDSP,α5β1 integrin [3]; α5β1-mediated attachment to fibronectin,about 50 fold
same,activity in inhibiting binding of RGD-displaying phage to α5β1 relative to *CRGDC*,"α5β1 integrin [4]; RGDGW phage, more active than *CRGDC*, FIG. 9",5 fold
CRSETYWKC,binding of peptide-displaying phage to the α5β1 integrin,α5β1 integrin [2],selectively bind
GACRGDCLGA (disulfide 3-7 (inferred)) [reference compound],inhibition of B2/α27 attachment to immobilized RRETAWA-containing peptide,α5β1 integrin [1]; inhibitor at 1 mM,inhibited
same,inhibition of binding of CRGDCL-displaying phage to integrin-coated wells,αvβ3 integrin,completely inhibited
same,inhibition of binding of ELRGDGW-displaying phage to α5β1 integrin,"α5β1 integrin [4]; ELRGDGW-displaying phage, CRRETAWAC compared with CRGDC, FIG. 2",approximately the same degree
GRGESP [reference compound],effect on α5β1-mediated cell attachment to fibronectin,"α5β1 integrin [3]; B2/α27 cells, FIG. 5",no effect
same,effect on RRETAWA-displaying phage binding to α5β1,"α5β1 integrin [4]; RRETAWA-displaying phage, FIG. 4",no effect
RCD(ThioP)C,binding to α4β1,α4β1,high affinity
same,binding to α5β1,α5β1,high affinity
